Reference: ChEMBL document CHEMBL1201862, “PubChem BioAssay data set” (2004)
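Five compound concentrations were applied to cells in 96-well plates for 48 hours; endpoints were derived by simple linear interpolation of the resulting dose-response curve. GI50 = concentration required for 50% inhibition of growth.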 Calls of active or inactive are those of the source. Rule as the data show it: active = GI50 up to about 1.1 µM and inactive = higher.

How the values were obtained:
Experiment in all cases: NCI anticancer screen, dose series, 48 h
786-0 = system: 786-0
A498 = system: A498
A549 = system: A549
ACHN = system: ACHN
CAKI-1 = system: CAKI-1
CCRF-CEM = system: CCRF-CEM
COLO 205 = system: COLO 205
DU-145 = system: DU-145
HCT-116 = system: HCT-116
HCT-15 = system: HCT-15
HL-60 = system: HL-60
HOP-62 = system: HOP-62
HT-29 = system: HT-29
Hs-578T = system: Hs-578T
IGROV-1 = system: IGROV-1
K562 = system: K562
KM12 = system: KM12
LOX IMVI = system: LOX IMVI
M14 = system: M14
MCF7 = system: MCF7
MDA-MB-231 = system: MDA-MB-231
MDA-MB-435 = system: MDA-MB-435
MDA-N = system: MDA-N
MOLT-4 = system: MOLT-4
NCI-H226 = system: NCI-H226
NCI-H23 = system: NCI-H23
NCI-H460 = system: NCI-H460
NCI-H522 = system: NCI-H522
NCI/ADR-RES = system: NCI/ADR-RES
OVCAR-3 = system: OVCAR-3
OVCAR-5 = system: OVCAR-5
OVCAR-8 = system: OVCAR-8
PC-3 = system: PC-3
RPMI-8226 = system: RPMI-8226
RXF 393 = system: RXF 393
SF-268 = system: SF-268
SF-295 = system: SF-295
SF-539 = system: SF-539
SK-MEL-2 = system: SK-MEL-2
SK-MEL-5 = system: SK-MEL-5
SK-OV-3 = system: SK-OV-3
SN12C = system: SN12C
SNB-19 = system: SNB-19
SR = system: SR
SW-620 = system: SW-620
T47D = system: T47D
TK-10 = system: TK-10
U-251 = system: U-251
UACC-257 = system: UACC-257
UACC-62 = system: UACC-62
UO-31 = system: UO-31
BT-549 = system: BT-549
EKVX = system: EKVX
HCC 2998 = system: HCC 2998
HOP-92 = system: HOP-92
SNB-75 = system: SNB-75
Malme-3M = system: Malme-3M
OVCAR-4 = system: OVCAR-4
SK-MEL-28 = system: SK-MEL-28

Measured: GI50

C1=C(c2ccccc2)Nc2nnnn2C1c1ccccc1 (centres undefined)
inactive: 786-0 47.2 µM | A498 37.2 µM | A549 44.5 µM | ACHN 23.6 µM | CAKI-1 47.6 µM | COLO 205 48.6 µM | DU-145 26.9 µM | HCT-116 9.93 µM | HL-60 21.9 µM | HOP-62 38.5 µM | HT-29 17.4 µM | Hs-578T 37.5 µM | IGROV-1 83.4 µM | K562 21.4 µM | KM12 13.5 µM | LOX IMVI 17.3 µM | M14 23.9 µM | MCF7 7.66 µM | MDA-MB-231 > 100 µM | MDA-MB-435 11.1 µM | MDA-N 20.1 µM | MOLT-4 22 µM | NCI-H226 47.4 µM | NCI-H23 > 100 µM | NCI-H460 34 µM | NCI-H522 23.1 µM | NCI/ADR-RES 44 µM | OVCAR-3 > 100 µM | OVCAR-5 93.3 µM | OVCAR-8 34.9 µM | PC-3 53.2 µM | RXF 393 16.7 µM | SF-268 32.7 µM | SF-295 28.6 µM | SF-539 25.1 µM | SK-MEL-2 27.5 µM | SK-MEL-5 40.7 µM | SK-OV-3 58.1 µM | SN12C 71.3 µM | SNB-19 49.4 µM | SR 12.1 µM | SW-620 22.1 µM | T47D 47.1 µM | TK-10 28.6 µM | U-251 18.6 µM | UACC-257 48.1 µM | UACC-62 46.2 µM | UO-31 > 100 µM
15.3 µM: HCT-15
active: CCRF-CEM 0.0125 µM | RPMI-8226 < 0.01 µM

O=C(O)c1ccc(-c2nc3cc(Cl)ccc3[nH]2)cc1
inactive: 786-0 > 100 µM | A549 > 100 µM | BT-549 > 100 µM | CAKI-1 > 100 µM | CCRF-CEM > 100 µM | COLO 205 > 100 µM | EKVX > 100 µM | HCC 2998 > 100 µM | HL-60 > 100 µM | HOP-62 > 100 µM | HOP-92 > 100 µM | HT-29 > 100 µM | Hs-578T > 100 µM | IGROV-1 > 100 µM | K562 > 100 µM | KM12 > 100 µM | M14 > 100 µM | MCF7 > 100 µM | MDA-MB-231 > 100 µM | MOLT-4 > 100 µM | NCI-H226 > 100 µM | NCI-H522 > 100 µM | NCI/ADR-RES > 100 µM | OVCAR-3 > 100 µM | OVCAR-8 > 100 µM | PC-3 > 100 µM | RPMI-8226 > 100 µM | RXF 393 > 100 µM | SF-295 > 100 µM | SF-539 > 100 µM | SK-MEL-2 > 100 µM | SK-MEL-5 > 100 µM | SK-OV-3 > 100 µM | SN12C > 100 µM | SNB-19 > 100 µM | SNB-75 > 100 µM | SR > 100 µM | SW-620 > 100 µM | T47D > 100 µM | U-251 > 100 µM | UO-31 > 100 µM
> 100 µM: HCT-15

CC12CC3c4ccccc4CN1C3(c1ccccc1)OC2=O (centres undefined)
> 100 µM: HCT-15
inactive: 786-0 > 100 µM | A498 > 100 µM | A549 > 100 µM | ACHN > 100 µM | BT-549 > 100 µM | CAKI-1 > 100 µM | CCRF-CEM > 100 µM | COLO 205 > 100 µM | DU-145 > 100 µM | EKVX > 100 µM | HCT-116 > 100 µM | HL-60 > 100 µM | HOP-62 > 100 µM | HT-29 > 100 µM | Hs-578T > 100 µM | IGROV-1 > 100 µM | KM12 > 100 µM | LOX IMVI > 100 µM | M14 > 100 µM | MDA-MB-231 > 100 µM | MDA-MB-435 > 100 µM | MOLT-4 > 100 µM | Malme-3M > 100 µM | NCI-H226 > 100 µM | NCI-H23 > 100 µM | NCI-H522 > 100 µM | NCI/ADR-RES > 100 µM | OVCAR-4 > 100 µM | OVCAR-5 > 100 µM | OVCAR-8 > 100 µM | PC-3 > 100 µM | RXF 393 > 100 µM | SF-268 > 100 µM | SF-295 > 100 µM | SF-539 > 100 µM | SK-MEL-28 > 100 µM | SK-MEL-2 > 100 µM | SK-MEL-5 > 100 µM | SK-OV-3 > 100 µM | SN12C > 100 µM | SNB-19 > 100 µM | SNB-75 > 100 µM | SW-620 > 100 µM | T47D > 100 µM | TK-10 > 100 µM | U-251 > 100 µM | UACC-257 > 100 µM | UACC-62 > 100 µM | UO-31 > 100 µM

CC1=C/C(=N\N(C)C)C(C(O)(C(F)(F)F)C(F)(F)F)C(C)(C)C1 (centres undefined)
> 100 µM: HCT-15
active: HOP-92 0.169 µM
inactive: 786-0 > 100 µM | A498 > 100 µM | A549 > 100 µM | ACHN > 100 µM | CAKI-1 > 100 µM | CCRF-CEM > 100 µM | COLO 205 > 100 µM | DU-145 > 100 µM | EKVX > 100 µM | HCC 2998 > 100 µM | HCT-116 > 100 µM | HL-60 > 100 µM | HOP-62 > 100 µM | HT-29 > 100 µM | Hs-578T 72.4 µM | IGROV-1 > 100 µM | K562 > 100 µM | KM12 > 100 µM | LOX IMVI > 100 µM | M14 > 100 µM | MCF7 > 100 µM | MDA-MB-231 > 100 µM | MDA-MB-435 > 100 µM | MDA-N > 100 µM | MOLT-4 97.1 µM | Malme-3M 97.1 µM | NCI-H226 > 100 µM | NCI-H23 69.7 µM | NCI-H460 > 100 µM | NCI-H522 > 100 µM | NCI/ADR-RES > 100 µM | OVCAR-3 26.4 µM | OVCAR-4 > 100 µM | OVCAR-5 > 100 µM | OVCAR-8 > 100 µM | PC-3 73.6 µM | RPMI-8226 46.8 µM | RXF 393 > 100 µM | SF-268 > 100 µM | SF-295 > 100 µM | SF-539 > 100 µM | SK-MEL-28 > 100 µM | SK-MEL-2 > 100 µM | SK-MEL-5 80.2 µM | SN12C > 100 µM | SNB-19 > 100 µM | SNB-75 27.1 µM | SR > 100 µM | SW-620 > 100 µM | T47D > 100 µM | TK-10 > 100 µM | U-251 > 100 µM | UACC-257 > 100 µM | UACC-62 > 100 µM | UO-31 > 100 µM

CCP(=O)(CC)C(Cl)Cl
inactive: A549 > 100 µM | ACHN > 100 µM | CAKI-1 > 100 µM | CCRF-CEM > 100 µM | COLO 205 > 100 µM | DU-145 > 100 µM | HCC 2998 > 100 µM | HCT-116 > 100 µM | HL-60 > 100 µM | HOP-62 > 100 µM | HOP-92 > 100 µM | HT-29 > 100 µM | Hs-578T > 100 µM | IGROV-1 > 100 µM | K562 > 100 µM | LOX IMVI > 100 µM | M14 > 100 µM | MCF7 > 100 µM | MDA-MB-231 > 100 µM | MDA-MB-435 > 100 µM | MDA-N > 100 µM | MOLT-4 > 100 µM | NCI-H226 > 100 µM | NCI-H23 > 100 µM | NCI-H460 > 100 µM | NCI-H522 > 100 µM | NCI/ADR-RES > 100 µM | OVCAR-3 > 100 µM | OVCAR-4 > 100 µM | OVCAR-5 > 100 µM | OVCAR-8 > 100 µM | PC-3 > 100 µM | RPMI-8226 > 100 µM | SF-295 > 100 µM | SK-MEL-28 > 100 µM | SK-MEL-2 > 100 µM | SK-MEL-5 > 100 µM | SK-OV-3 > 100 µM | SN12C > 100 µM | SNB-19 > 100 µM | SNB-75 > 100 µM | SR > 100 µM | SW-620 > 100 µM | T47D > 100 µM | TK-10 > 100 µM | U-251 > 100 µM | UACC-257 > 100 µM | UO-31 > 100 µM
> 100 µM: HCT-15
